Patent US6656956B2, “Benzimidazole derivatives, processes for preparing them and their use as pharmaceutical compositions” (Boehringer Ingelheim Pharma KG, priority 2001, dated 2003)
pIC50: −log10 of the molar value. Structures can show the parent of a compound that is named as a salt.

What follows are compounds tested against T1, rh beta tryptase (Homo sapiens, UniProt Q15661) (assay: tryptase inhibition in vitro test (cleavage of N-p-tosyl-Gly-Pro-Lys-para-nitroaniline, p-nitroaniline measured at 405 nm)). Details: rh beta tryptase 0.91 U/ml, substrate 0.6 mM, Tris HCl buffer with calcium and heparin, pH 7.4, 37° C., 5 minutes incubation; read-out: Tryptase-inhibiting activity.
T1 construct: purchased Promega
T1 sequence (Q15661 31-275): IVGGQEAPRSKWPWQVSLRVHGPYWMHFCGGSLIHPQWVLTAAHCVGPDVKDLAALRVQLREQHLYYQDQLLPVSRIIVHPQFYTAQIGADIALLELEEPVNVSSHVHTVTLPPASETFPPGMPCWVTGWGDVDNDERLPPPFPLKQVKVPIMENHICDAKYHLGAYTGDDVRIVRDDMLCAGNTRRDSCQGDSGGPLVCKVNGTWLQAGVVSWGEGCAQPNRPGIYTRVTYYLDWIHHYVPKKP
Assay type: biochemical
Experimental: The compounds according to the invention are characterised by their tryptase-inhibiting activity. This ability to inhibit tryptase was investigated using the test described below.
The measurement is carried out in Tris HCl buffer (100 mM), which additionally contains calcium (5 mM) and heparin ([…]), at pH 7.4. The standard used is rh beta tryptase which may be obtained commercially from Promega, for example. The substrate used is N-p-tosyl-Gly-Pro-Lys-para-nitroaniline in a concentration of 0.6 mM. The substrate is digested with tryptase to form p-nitroaniline which can be measured at 405 nm. Usually, an incubation period of 5 minutes and an incubation temperature of 37° C. are chosen. The enzyme activity used is 0.91 U/ml. The measurements are carried out in an Autoanalyser (Cobas Bio) made by Hofmann LaRoche. The potential inhibitory substances are used in concentrations of 10 μM in the screening, the inhibition of the tryptase being given in percent. The IC50 is determined at over 70% inhibition (concentration at which 50% of the enzyme activity is inhibited). After 5 minutes' pre-incubation of the potential inhibitory substances, the substrate is added to start the reaction, the formation of p-nitroaniline being taken as a measurement of the enzyme activity after 5 minutes, after testing the linearity.

Row | SMILES | pIC50
1 | Cn1c(CCc2ccc(C(=N)N)cc2)nc2cc(N(Cc3cccc4ccccc34)C(=O)CN3CCC(Nc4cccnc4)CC3)ccc21 [Example 26, N-{2-[2-(4-Amidinophenyl)-ethyl]-1-methyl-benzimidazol-5-yl}-N-[naphth-1-ylmethyl]-2-[4-(3-pyridylamino)-piperid-1-yl]-acetamide, dihydrochloride] | 8.52 to 9.30
2 | Cn1c(CCc2ccc(C(=N)N)cc2)nc2cc(N(Cc3cccc4ccccc34)C(=O)NC3CCC(Nc4ccccn4)CC3)ccc21 (stereo not shown) [Example 76, N-{2-[2-(4-Amidinophenyl)-ethyl]-1-methyl-benzimidazol-5-yl}-N-[naphth-1-ylmethyl]-N′-[4-(2-pyridyl)-amino-cyclohexyl)-urea, hydrochloride] | 6.00 to 7.51
3 | Cn1c(CCc2ccc(C(=N)N)cc2)nc2cc(N(Cc3ccc(C(C)(C)C)cc3)C(=O)CN3CCC(Nc4ccccn4)CC3)ccc21 [Example 3, N-{2-[2-(4-Amidinophenyl)-ethyl]-1-methyl-benzimidazol-5-yl}-N-(4-tert-butylphenylmethyl)-2-[4-(2-pyridylamino)-piperid-1-yl]-acetamide, Dihydrochloride] | 7.52 to 8.40
4 | CCOC(=O)CCN(C(=O)CN1CCC(Nc2ccccn2)CC1)c1ccc2c(c1)nc(CCc1ccc(C(=N)N)cc1)n2C [Example 53, N-{2-[2-(4-Amidinophenyl)-ethyl]-1-methyl-benzimidazol-5-yl}-N-[ethyl ethanecarboxylate]-2-[4-(2-pyridylamino)-piperid-1-yl]-acetamide, dihydrochloride] | 7.52 to 8.40
5 | Cn1c(CCc2ccc(C(=N)N)cc2)nc2cc(N(Cc3cccc4ccccc34)C(=O)CN3CCC(Nc4cccc(Cl)c4)CC3)ccc21 [Example 11, N-{2-[2-(4-Amidinophenyl)-ethyl]-1-methyl-benzimidazol-5-yl}-N-[naphth-1-ylmethyl]-2-[4-(3-chlorophenylamino)-piperid-1-yl]-acetamide, dihydrochloride] | 8.52 to 9.30

The next lines start with the values.

Row | pIC50 | SMILES
6 | 6.00 to 7.51 | Cn1c(CCc2ccc(C(=N)N)cc2)nc2cc(N(Cc3cccc4ccccc34)C(=O)N3CCC(Nc4ccccn4)CC3)ccc21 [Example 79, N-{2-[2-(4-Amidinophenyl)-ethyl]-1-methyl-benzimidazol-5-yl}-N-[naphth-1-ylmethyl]-N′-[4-(2-pyridyl)-amino]-piperid-1-ine-urea, hydrochloride]
7 | 7.52 to 8.40 | CN(C(=O)CN1CCC(Nc2ccc3c(c2)Cc2ccccc2-3)CC1)c1ccc2c(c1)nc(CCc1ccc(C(=N)N)cc1)n2C [Example 42, N-{2-[2-(4-Amidinophenyl)-ethyl]-1-methyl-benzimidazol-5-yl}-N-methyl-2-[4-(aminofluorene)-piperid-1-yl]-acetamide, dihydrochloride]
8 | 8.52 to 9.30 | Cc1ccc(NC2CCN(CC(=O)N(C)c3ccc4c(c3)nc(CCc3ccc(C(=N)N)cc3)n4C)CC2)c(Cl)c1 [Example 61, N-{2-[2-(4-Amidinophenyl)-ethyl]-1-methyl-benzimidazol-5-yl}-N-methyl-2-[4-(2-chloro-4-methylamino)-piperid-1-yl]-acetamide, dihydrochloride]
9 | 6.00 to 7.51 | CN(C(=O)CN1CCC(Nc2ccccc2C(=N)N)CC1)c1ccc2c(c1)nc(CCc1ccc(C(=N)N)cc1)n2C [Example 40, N-{2-[2-(4-Amidinophenyl)-ethyl]-1-methyl-benzimidazol-5-yl}-N-methyl-2-[4-(2-amidinophenylamino)-piperid-1-yl]-acetamide, dihydrochloride]
10 | 6.00 to 7.51 | COc1cccc(NC(=O)N(Cc2cccc3ccccc23)c2ccc3c(c2)nc(CCc2ccc(C(=N)N)cc2)n3C)c1 [Example 73, N-{2-[2-(4-Amidinophenyl)-ethyl]-1-methyl-benzimidazol-5-yl}-N-[naphth-1-ylmethyl]-N′-(3-methoxy)-phenyl, hydrochloride]
